# From patent EP0212310A2, “Use of probucol in the preparation of a medicament for the treatment of heart arrhythmia” (priority 1985, dated 1987)
# Values joined by “and” are separate entries in the source; they are usually repeats but may differ in a detail not shown here. Equal values may be shown once.
# Legend:
# [1] = system: Patienten mit Hyperlipoproteinämie; assay: 12-lead standard ECG: QT time and heart rate in verum and placebo phases of a controlled study; assay type: in vivo
# Source text: Je ein 12-Ableitungs-Standard-EKG wurde registriert. • 1. In der Placebophase • 2. In der Verumphase nach 12 Wochen • 3. In der Verumphase nach 24 Wochen • 4. In der Placebophase 42 Tage nach Absetzen von Probucol
# Für jede der Aufzeichnungen wurde jeweils die frequenzkorrigierte QT-Zeit ermittelt (Bazett-Formula).
# Unter Verwendung des Wilcoxon-Tests für verbundene Stichproben wurde geprüft, ob ein signifikanter Unterschied der QT-Dauer zwischen den Placebophasen und den Verumphasen besteht.
# [2] = system: Patienten mit Hyperlipoproteinämie; assay: 24-hour long-term ECG: arrhythmia frequency under placebo (control) and under verum; assay type: in vivo
# Source text: Von allen 42 Patienten wurde mittels Oxfolg-Medilog II Registriergeräten ein 24-Stunden-Langzeit-EKG sowohl in der Verum- als auch in der Placebophase registriert.
# Die Bänder wurden ohne Kenntnis der Therapie unter Verwendung eines Reynolds Pathfinder-Analysesytems ausgewertet, dessen Sensitivität zur Identifikation von QRS-Komplexion bei 99 %, zur Erkennung ventrikulärer Extrasystolen bei 96 % lag. Neben den normalen und extrasystolischen QRS-Komplexen wurden auch die folgenden Arrhythmieformen quantitativ erfaßt: supraventrikuläre Extrasystolen, supraventrikuläre Tachykardien, ventrikuläre Extrasystolen, R/T-Phänomene,gepaarte ventrikuläre Extrasystolen, mehrere hintereinander auftretende ventrikuläre Extrasystolen, Kammertachykardien, ventrikuläre Bigemini und Asystolien. Darüber hinaus wurden erfaßt Phasen intermittierenden Vorhofflimmerns, intermittierende Schenkelblockbilder und das Herzfrequenzverhalten.
# Die stündliche Häufigkeit der verschiedenen Rhythmusstö-rungen wurden erfaßt und auf einem Computerausdruck dokumentiert. Die Analyse wurde korrigiert, indem der Vorgang jedes Mal unterbrochen wurde, wenn eine ventrikuläre Extrasystole erkannt wurde. Diese wurde dann jeweils 1 : 1 auf EKG-Papier ausgeschrieben und durch den Untersucher verifiziert. Im Falle der falsch positiven Erkennung eines Ereignisses wurde der Computerausdruck entsprechend korrigiert. Dadurch wurde die positive Korrektheit der Analyse auf 100 % gesteigert. In Tabelle 3 sind die korri gierten Ergebnisse wiedergegeben.
# Bei der relativen Seltenheit komplexer tachykarder ventrikulärer Rhythmusstörungen im untersuchten Kollektiv wurde eine Bewertung des Therapieeffektes lediglich für die ventrikulären Extrasystolen vorgenommen. Hierbei ließ sich die Frage nach einem möglichen paradoxen arrhythmogenen Effekt naturgemäß für alle Patienten beantworten, die Frage nach einem antiarrhythmischen Effekt dagegen nur bei den Patienten, deren spontane Arrhythmiehäufigkeit in der Placebophase eine gewisse Häufigkeit überschritt. Hierfür wurde willkürlich eine Grenze von wenigstens einer Extrasystole/Stunde, entsprechend 24 in 24 Stunden, gefordert.
# Als Hinweis auf einen möglichen paradoxen arrhythmogenen Effekt des Medikaments werteten wir eine Zunahme der Extrasystoliehäufigkeit gegenüber Placebo um wenigstens 150 %. Als Hinweis auf einen möglichen antiarrhythmischen Effekt werteten wir eine Abnahme der spontanen Extrasystoliehäufigkeit um wenigstens 60 %, als Hinweise auf einen wahrscheinlichen antiarrhythmischen Effekt eine Abnahme der Extrasystoliehäufigkeit um wenigstens 75 %.
# [3] = system: Patienten mit Hyperlipoproteinämie; details: in vivo
# Source text: Bei 42 Patienten mit Hyperlipoproteinämie wurde im Rahmen einer kontrollierten Studie die Wirkung von Probucol gegen Placebo geprüft.
# [4] = number out of 17 patients with more than 1 VES/h under placebo
compound,measurement,setting,value
CC(C)(Sc1cc(C(C)(C)C)c(O)c(C(C)(C)C)c1)Sc1cc(C(C)(C)C)c(O)c(C(C)(C)C)c1 [Probucol],Verlängerung der frequenzkontrollierten QT-Zeit,"[1]; 1000 mg daily, versus placebo",ca. 5%
same,Verum-2 F Mittelw.,"[1]; mean, N 41, phase Verum-2","64,32"
same,Verum-2 QT Mittelw.,"[1]; mean, N 41, phase Verum-2","0,40"
same,Verum-4 F Mittelw.,"[1]; mean, N 41, phase Verum-4","66,49"
same,Verum-4 QT Mittelw.,"[1]; mean, N 41, phase Verum-4","0,38"
same,frequenzkorrigierte QT-Zeit unter Probucol im Vergleich zu den Placebophasen,"[1]; therapy phase 1 or 2 versus placebo phase 1 or 2, p = 0.002, Wilcoxon test",signifikant verlängert
same,Patienten mit Abnahme der Extrasystolie um wenigstens 60 %,[2]; further patients out of the 8 with more than 15 VES/h spontaneous frequency,Drei
same,komplexe tachykarde ventrikuläre Rhythmusstörungen unter Therapie,[2]; in the 3 patients with paradoxical arrhythmogenic effect,Bei keinem der 3 Patienten
same,Patienten mit signifikanter Zunahme der spontanen Arrhythmiehäufigkeit unter Probucol (paradoxe arrhythmogene Wirkung),[2]; in vivo,3
same,ventrikulärer Bigeminus,[2]; in vivo,"bei einem Patienten unter Verum, jedoch nicht unter Placebo"
same,Abnahme der Extrasystoliefrequenz,[2]; individual values of the 8 patients with more than 15 VES/h spontaneous frequency,60% and 66% and 69% and 89% and 90% and 94% and 95% and 100%
same,Patienten mit statistisch signifikanter Abnahme der Extrasystoliefrequenz um mehr als 75 %,[2]; number out of 8 patients with more than 15 VES/h spontaneous frequency,5
same,Patienten mit Reduktion der Extrasystolen unter Therapie über 75 %,[2]; [4],7
same,Patienten mit Reduktion der Extrasystolen zwischen 60 und 75 %,[2]; [4],3
same,"Patienten mit Reduktion der spontanen Extrasystoliefrequenz, die auf eine antiarrhythmische Wirkung hinweist","[2]; share of the 17 patients with more than 1 VES/h under placebo, reduction of at least 60 %",59%
same,Nebenwirkungen,[3],"gelegentlich Durchfall, Bauchschmerzen und Kopfschmerzen"
